The assay concerns the target T1, human LOXL2 (Homo sapiens, UniProt Q9Y4K0).
T1 construct: expressed in transfected cells; 10-20x concentrated conditioned media used as the enzyme source
T1 sequence (Q9Y4K0 26-774): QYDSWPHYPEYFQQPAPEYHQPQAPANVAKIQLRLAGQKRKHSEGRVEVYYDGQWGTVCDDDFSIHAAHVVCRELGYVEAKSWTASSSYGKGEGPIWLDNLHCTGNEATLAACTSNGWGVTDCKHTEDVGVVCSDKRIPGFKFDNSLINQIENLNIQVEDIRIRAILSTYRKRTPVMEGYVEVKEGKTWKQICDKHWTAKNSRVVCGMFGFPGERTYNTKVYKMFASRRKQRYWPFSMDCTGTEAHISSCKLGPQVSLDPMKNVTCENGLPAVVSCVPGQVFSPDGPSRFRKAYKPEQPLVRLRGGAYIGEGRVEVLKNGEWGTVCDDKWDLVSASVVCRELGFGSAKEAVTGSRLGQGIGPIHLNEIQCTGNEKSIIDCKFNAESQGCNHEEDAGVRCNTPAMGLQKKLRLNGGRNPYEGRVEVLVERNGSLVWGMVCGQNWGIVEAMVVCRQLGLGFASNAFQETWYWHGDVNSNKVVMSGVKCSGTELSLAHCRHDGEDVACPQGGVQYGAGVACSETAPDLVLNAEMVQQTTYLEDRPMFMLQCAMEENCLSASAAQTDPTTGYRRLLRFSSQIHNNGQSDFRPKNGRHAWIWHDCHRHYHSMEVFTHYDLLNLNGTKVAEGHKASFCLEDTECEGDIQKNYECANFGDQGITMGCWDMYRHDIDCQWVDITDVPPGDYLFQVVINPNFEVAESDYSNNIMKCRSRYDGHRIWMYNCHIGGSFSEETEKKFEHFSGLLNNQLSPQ
Briefly: Human LOXL2 amine oxidase activity assay (Amplex Red fluorescence). The assay is classed as biochemical. The following applies: concentrated conditioned media from CHO cells stably expressing human LOXL2; 2 h at 37° C. preincubation; DAP substrate. The procedure: Example B-1: Human LOXL2 Amine Oxidase Activity Assay
LOXL2 amine oxidase activity is evaluated by measuring Amplex Red fluorescence using 10-20× concentrated conditioned media from CHO cells stably expressing human LOXL2.
To assay for amine oxidase activity, 10 μL of the concentrated conditioned media is incubated with 2 μL of test compound in DMSO and 73 μL Assay Buffer (50 mM Borate Buffer, pH8) for 2 h at 37° C. After the 2 h incubation, 5 ul of 10 mM 1,5-Diaminopentane (DAP) diluted in Assay Buffer and 10 μl of Amplex Red Mix (8.5 μl Assay Buffer+0.5 μl of 10 mM Amplex Red+1 μl of 500 U/ml Horseradish Peroxidase) are added and the plate mixed and immediately placed on the FlexStaion for fluorescence measurements. Fluorescence is read in kinetic mode every 2 min for 1 hour at excitation=544 and emission=590. The amine oxidase activity is calculated from the slope of the linear portion of the curve.
Take `NCc1cc(Oc2cccc(C(=O)N3CCc4cccnc4C3)c2)ncn1` [Compound 1-69, (3-((6-(Aminomethyl)pyrimidin-4-yl)oxy)phenyl)(5,6-dihydro-1,7-naphthyridin-7(8H)-yl)methanone]: the IC50 is < 100 nM.

Take `Cc1n[nH]c2c1CN(C(=O)c1cccc(Oc3cc(CN)ncn3)c1)CC2` [Compound 1-70, (3-((6-(Aminomethyl)pyrimidin-4-yl)oxy)phenyl)(3-methyl-6,7-dihydro-1H-pyrazolo[4,3-c]pyridin-5(4H)-yl)methanone]: the IC50 is < 100 nM.

As to `NCc1cc(Oc2cccc(C(=O)N3CCc4c([nH]c5ncccc45)C3)c2)ncn1` [Compound 1-71, (3-((6-(Aminomethyl)pyrimidin-4-yl)oxy)phenyl)(5H-pyrrolo[2,3-b:5,4-c′]dipyridin-7(6H,8H,9H)-yl)methanone], the half-maximal inhibitory concentration (IC50) was < 100 nM.

In the case of `NCc1cc(Oc2cccc(C(=O)N3CCN(c4ncc(Cl)cc4Cl)CC3)c2)ncn1` [Compound 1-73, (3-((6-(Aminomethyl)pyrimidin-4-yl)oxy)phenyl)(4-(3,5-dichloropyridin-2-yl)piperazin-1-yl)methanone], the IC50 was < 100 nM.

As to `NCc1cc(Oc2cccc(C(=O)N3CCC(O)(C(F)(F)F)CC3)c2)ncn1` [Compound 1-74, (3-((6-(Aminomethyl)pyrimidin-4-yl)oxy)phenyl)(4-hydroxy-4-(trifluoromethyl)piperidin-1-yl)methanone], the IC50 is < 100 nM.

With `C#C[C@H](CC(=O)OC)NC(=O)c1cccc(Oc2cc(CN)ncn2)c1` [Compound 1-75, (S)-Methyl 3-(3-((6-(aminomethyl)pyrimidin-4-yl)oxy)benzamido)pent-4-ynoate], the half-maximal inhibitory concentration (IC50) is < 100 nM.

For the molecule `C#C[C@@H](CC(=O)OC)NC(=O)c1cccc(Oc2cc(CN)ncn2)c1` [Compound 1-76, (R)-Methyl 3-(3-((6-(aminomethyl)pyrimidin-4-yl)oxy)benzamido)pent-4-ynoate], the half-inhibitory concentration (IC50) is < 100 nM.

With `NCc1cc(OCc2cccc(C(=O)Nc3cccc(C(F)(F)F)c3)c2)ncn1` [Compound 1-77, 3-(((6-(Aminomethyl)pyrimidin-4-yl)oxy)methyl)-N-(3-(trifluoromethyl)phenyl)benzamide], the IC50 is < 100 nM.

Take `NCc1cc(OCc2cccc(C(=O)N[C@@H](CO)c3ccccc3)c2)ncn1` [Compound 1-78, (R)-3-(((6-(Aminomethyl)pyrimidin-4-yl)oxy)methyl)-N-(2-hydroxy-1-phenylethyl)benzamide]: the IC50 was < 100 nM.

As for `NCc1cc(OCc2cccc(C(=O)NCc3cccnc3)c2)ncn1` [Compound 1-79, 3-(((6-(Aminomethyl)pyrimidin-4-yl)oxy)methyl)-N-(pyridin-3-ylmethyl)benzamide], the half-inhibitory concentration (IC50) was < 100 nM.

Consider `NCc1cc(OCc2cccc(C(=O)NCc3ccnc(Cl)c3)c2)ncn1` [Compound 1-80, 3-(((6-(Aminomethyl)pyrimidin-4-yl)oxy)methyl)-N-((2-chloropyridin-4-yl)methyl)benzamide], for which the IC50 is < 100 nM.

In the case of `NCc1cc(OCc2cccc(C(=O)NCc3cc4ccccc4s3)c2)ncn1` [Compound 1-81, 3-(((6-(Aminomethyl)pyrimidin-4-yl)oxy)methyl)-N-(benzo[b]thiophen-2-ylmethyl)benzamide], the half-inhibitory concentration (IC50) is < 100 nM.

For `NCc1cc(OCc2cccc(C(=O)NCc3cc4cc(F)ccc4s3)c2)ncn1` [Compound 1-82, 3-(((6-(Aminomethyl)pyrimidin-4-yl)oxy)methyl)-N-((5-fluorobenzo[b]thiophen-2-yl)methyl)benzamide], the IC50 is < 100 nM.

In the case of `NCc1cc(OCc2cccc(C(=O)NCc3nc4ccccc4o3)c2)ncn1` [Compound 1-83, 3-(((6-(Aminomethyl)pyrimidin-4-yl)oxy)methyl)-N-(benzo[d]oxazol-2-ylmethyl)benzamide], the IC50 is < 100 nM.

For the molecule `NCc1cc(OCc2cccc(C(=O)NCc3cc4ccccc4[nH]3)c2)ncn1` [Compound 1-84, N-((1H-indol-2-yl)methyl)-3-(((6-(aminomethyl)pyrimidin-4-yl)oxy)methyl)benzamide], the half-maximal inhibitory concentration (IC50) was < 100 nM.
